Source: paper PMC7002685, “Inhibition of vascular calcification by inositol phosphates derivatized with ethylene glycol oligomers” (Nature Communications, 2020)

Legend:
GABAB1A = biological target: T1, GABAB1A (Homo sapiens, UniProt Q9UBS5); assay: Off-target 228610; format: binding
T1 construct: purchased Eurofins Panlabs Discovery Services Taiwan, Ltd
Method: (§1) The potential off-target activity of 10 µM (OEG2)2-IP4 was assessed against a panel of 87 enzymes, receptors, or ion channels that are used in standard safety pharmacology screens.
(§2) 3.2. Off-target screening assay
(§3) The experiments were conducted by a contract research organization (Eurofins Panlabs Discovery
(§4) Services Taiwan, Ltd.) and details on the respective assays can be retrieved via the catalog number
(§5) provided in Supplementary Table 11 from the company’s webpage
(§6) (https://www.eurofinsdiscoveryservices.com/). […]

Muscarinic M1 = biological target: T2, Muscarinic M1 (Homo sapiens, UniProt P11229); assay: Off-target 252610; format: binding
T2 construct: purchased Eurofins Panlabs Discovery Services Taiwan, Ltd
T2 sequence (P11229 whole entry): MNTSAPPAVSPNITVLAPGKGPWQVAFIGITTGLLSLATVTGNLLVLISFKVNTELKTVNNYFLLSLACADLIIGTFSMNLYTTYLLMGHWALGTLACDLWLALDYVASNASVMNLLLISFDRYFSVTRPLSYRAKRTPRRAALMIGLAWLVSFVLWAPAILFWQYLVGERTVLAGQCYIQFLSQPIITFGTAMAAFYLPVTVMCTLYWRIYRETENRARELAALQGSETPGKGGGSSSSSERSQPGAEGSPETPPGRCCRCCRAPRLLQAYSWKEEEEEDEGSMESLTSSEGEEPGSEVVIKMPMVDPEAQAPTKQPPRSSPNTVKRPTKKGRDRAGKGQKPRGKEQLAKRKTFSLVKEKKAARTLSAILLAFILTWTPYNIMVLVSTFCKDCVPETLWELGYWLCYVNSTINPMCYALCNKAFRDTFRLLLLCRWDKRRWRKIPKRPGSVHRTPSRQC
Method: as §1, §2
(§7) The experiments were conducted by a contract research organization (Eurofins Panlabs Discovery Services Taiwan, Ltd.) and details on the respective assays can be retrieved via the catalog number provided in Supplementary Table 11 from the company’s webpage
as §6
(§8) At sacrifice the left tibia of animals of the rat model with dietary adenine/high-phosphate-induced uremia and VC was collected, fixed with 70% v/v EtOH and embedded in methyl methacrylate. The trabecular bone compartment is known to be the most metabolic active i.e. actively re-structured bone compartment in CKD. Therefore, histomorphometric and micro-computed tomography (µCT) analysis of bone was performed on the trabecular compartment. Tibial sections were Goldner-stained for histomorphometric analysis of the proximal metaphysis using the AxioVision Release 4.5 software, as […]
(§9) described previously5. […]

Muscarinic M3 = biological target: T3, Muscarinic M3 (Homo sapiens, UniProt P20309); assay: Off-target 252810; format: binding
T3 construct: purchased Eurofins Panlabs Discovery Services Taiwan, Ltd
T3 sequence (P20309 whole entry): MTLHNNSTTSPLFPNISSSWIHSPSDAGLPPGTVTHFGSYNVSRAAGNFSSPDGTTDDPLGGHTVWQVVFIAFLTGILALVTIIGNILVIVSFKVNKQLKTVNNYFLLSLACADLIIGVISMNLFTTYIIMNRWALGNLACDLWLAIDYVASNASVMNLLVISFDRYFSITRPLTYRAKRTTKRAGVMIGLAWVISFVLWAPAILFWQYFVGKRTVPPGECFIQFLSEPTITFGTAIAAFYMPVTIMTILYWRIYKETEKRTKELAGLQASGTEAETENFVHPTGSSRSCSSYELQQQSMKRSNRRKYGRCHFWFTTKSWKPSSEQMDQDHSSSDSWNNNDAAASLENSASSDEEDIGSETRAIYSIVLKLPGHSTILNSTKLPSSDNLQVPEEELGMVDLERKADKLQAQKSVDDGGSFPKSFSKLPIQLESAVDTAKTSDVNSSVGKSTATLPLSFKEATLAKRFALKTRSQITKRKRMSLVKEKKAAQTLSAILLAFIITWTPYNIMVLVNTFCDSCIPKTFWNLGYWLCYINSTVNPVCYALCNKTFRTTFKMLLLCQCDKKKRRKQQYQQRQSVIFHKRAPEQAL
Method: as §1, §2, §7, §6, §8, §9

Muscarinic M2 = biological target: T4, Muscarinic M2 (Homo sapiens, UniProt P08172); assay: Off-target 252710; format: binding
T4 construct: purchased Eurofins Panlabs Discovery Services Taiwan, Ltd
T4 sequence (P08172 whole entry): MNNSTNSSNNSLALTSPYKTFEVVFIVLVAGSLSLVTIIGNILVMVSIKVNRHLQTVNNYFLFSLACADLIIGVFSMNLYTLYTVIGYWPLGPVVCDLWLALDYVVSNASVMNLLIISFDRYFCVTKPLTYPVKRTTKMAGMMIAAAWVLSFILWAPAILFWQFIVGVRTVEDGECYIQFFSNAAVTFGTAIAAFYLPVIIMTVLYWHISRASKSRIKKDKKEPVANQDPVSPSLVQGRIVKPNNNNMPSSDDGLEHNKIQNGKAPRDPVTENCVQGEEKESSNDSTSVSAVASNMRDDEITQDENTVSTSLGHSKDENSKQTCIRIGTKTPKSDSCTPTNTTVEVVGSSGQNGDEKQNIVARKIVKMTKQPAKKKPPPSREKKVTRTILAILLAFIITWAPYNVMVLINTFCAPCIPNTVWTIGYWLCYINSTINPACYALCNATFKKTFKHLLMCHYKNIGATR
Method: as §1, §2, §7, §6, §8, §9

Cannabinoid CB2 = biological target: T5, Cannabinoid CB2 (Homo sapiens, UniProt P34972); assay: Off-target 217100; format: binding
T5 construct: purchased Eurofins Panlabs Discovery Services Taiwan, Ltd
T5 sequence (P34972 whole entry): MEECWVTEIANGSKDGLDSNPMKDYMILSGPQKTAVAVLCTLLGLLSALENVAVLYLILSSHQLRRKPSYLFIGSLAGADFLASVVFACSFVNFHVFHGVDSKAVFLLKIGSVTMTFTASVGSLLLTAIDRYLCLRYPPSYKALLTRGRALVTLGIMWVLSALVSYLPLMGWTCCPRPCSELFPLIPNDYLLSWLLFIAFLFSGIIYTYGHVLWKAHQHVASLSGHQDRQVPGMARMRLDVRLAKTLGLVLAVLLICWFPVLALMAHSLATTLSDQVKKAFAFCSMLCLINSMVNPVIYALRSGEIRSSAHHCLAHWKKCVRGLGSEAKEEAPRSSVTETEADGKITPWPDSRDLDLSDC
Method: as §1, §2, §7, §6, §8, §9

Muscarinic M4 = biological target: T6, Muscarinic M4 (Homo sapiens, UniProt P08173); assay: Off-target 252910; format: binding
T6 construct: purchased Eurofins Panlabs Discovery Services Taiwan, Ltd
T6 sequence (P08173 whole entry): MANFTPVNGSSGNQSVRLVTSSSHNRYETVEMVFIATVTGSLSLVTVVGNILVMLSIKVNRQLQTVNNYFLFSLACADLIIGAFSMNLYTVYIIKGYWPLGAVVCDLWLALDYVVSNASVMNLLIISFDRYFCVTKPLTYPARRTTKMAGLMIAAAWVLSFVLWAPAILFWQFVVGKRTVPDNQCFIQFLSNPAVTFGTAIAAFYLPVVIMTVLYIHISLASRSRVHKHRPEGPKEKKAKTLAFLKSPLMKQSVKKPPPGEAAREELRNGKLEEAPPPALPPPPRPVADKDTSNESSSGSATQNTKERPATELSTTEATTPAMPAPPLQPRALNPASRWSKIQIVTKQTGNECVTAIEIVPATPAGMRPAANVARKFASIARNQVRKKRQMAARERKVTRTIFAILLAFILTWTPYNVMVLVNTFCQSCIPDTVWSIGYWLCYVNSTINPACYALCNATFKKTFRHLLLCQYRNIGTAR
Method: as §1, §2, §3, §4, §5, §6

Opiate μ (OP3, MOP) = biological target: T7, Opiate μ (OP3, MOP) (Homo sapiens, UniProt P35372); assay: Off-target 260410; format: binding
T7 construct: purchased Eurofins Panlabs Discovery Services Taiwan, Ltd
T7 sequence (P35372 whole entry): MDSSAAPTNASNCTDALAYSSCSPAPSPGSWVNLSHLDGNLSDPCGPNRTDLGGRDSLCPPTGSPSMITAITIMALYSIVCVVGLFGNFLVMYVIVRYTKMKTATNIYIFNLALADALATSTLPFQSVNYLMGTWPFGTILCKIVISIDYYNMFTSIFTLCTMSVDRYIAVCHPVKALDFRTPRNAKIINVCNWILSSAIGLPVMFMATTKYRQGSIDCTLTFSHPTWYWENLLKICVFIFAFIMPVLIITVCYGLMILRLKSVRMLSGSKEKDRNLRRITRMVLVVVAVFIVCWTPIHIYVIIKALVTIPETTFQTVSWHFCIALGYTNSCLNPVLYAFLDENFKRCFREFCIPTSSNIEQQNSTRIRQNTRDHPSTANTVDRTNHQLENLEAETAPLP
Method: as §1, §2, §7, §6, §8, §9

vascular calcification = assay: Vitamin D3 (oral) + warfarin diet rat model of VC
[1] = biological target: T8, Leukotriene, Cysteinyl CysLT1 (Homo sapiens, UniProt Q9Y271); assay: Off-target 250460; format: binding
T8 construct: purchased Eurofins Panlabs Discovery Services Taiwan, Ltd
T8 sequence (Q9Y271 whole entry): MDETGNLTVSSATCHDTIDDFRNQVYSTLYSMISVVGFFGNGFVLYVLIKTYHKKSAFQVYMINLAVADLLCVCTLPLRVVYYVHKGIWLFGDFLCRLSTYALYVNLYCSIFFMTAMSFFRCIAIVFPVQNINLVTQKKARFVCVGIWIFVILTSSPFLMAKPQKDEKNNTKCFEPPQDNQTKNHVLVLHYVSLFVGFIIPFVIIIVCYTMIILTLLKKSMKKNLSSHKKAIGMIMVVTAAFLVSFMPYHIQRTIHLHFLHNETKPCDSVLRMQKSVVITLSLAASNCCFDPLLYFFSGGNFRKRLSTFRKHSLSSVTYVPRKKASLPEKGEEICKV
Method: as §1, §2, §3, §4, §5, §6

T1 sequence (Q9UBS5 15-961 limits assumed): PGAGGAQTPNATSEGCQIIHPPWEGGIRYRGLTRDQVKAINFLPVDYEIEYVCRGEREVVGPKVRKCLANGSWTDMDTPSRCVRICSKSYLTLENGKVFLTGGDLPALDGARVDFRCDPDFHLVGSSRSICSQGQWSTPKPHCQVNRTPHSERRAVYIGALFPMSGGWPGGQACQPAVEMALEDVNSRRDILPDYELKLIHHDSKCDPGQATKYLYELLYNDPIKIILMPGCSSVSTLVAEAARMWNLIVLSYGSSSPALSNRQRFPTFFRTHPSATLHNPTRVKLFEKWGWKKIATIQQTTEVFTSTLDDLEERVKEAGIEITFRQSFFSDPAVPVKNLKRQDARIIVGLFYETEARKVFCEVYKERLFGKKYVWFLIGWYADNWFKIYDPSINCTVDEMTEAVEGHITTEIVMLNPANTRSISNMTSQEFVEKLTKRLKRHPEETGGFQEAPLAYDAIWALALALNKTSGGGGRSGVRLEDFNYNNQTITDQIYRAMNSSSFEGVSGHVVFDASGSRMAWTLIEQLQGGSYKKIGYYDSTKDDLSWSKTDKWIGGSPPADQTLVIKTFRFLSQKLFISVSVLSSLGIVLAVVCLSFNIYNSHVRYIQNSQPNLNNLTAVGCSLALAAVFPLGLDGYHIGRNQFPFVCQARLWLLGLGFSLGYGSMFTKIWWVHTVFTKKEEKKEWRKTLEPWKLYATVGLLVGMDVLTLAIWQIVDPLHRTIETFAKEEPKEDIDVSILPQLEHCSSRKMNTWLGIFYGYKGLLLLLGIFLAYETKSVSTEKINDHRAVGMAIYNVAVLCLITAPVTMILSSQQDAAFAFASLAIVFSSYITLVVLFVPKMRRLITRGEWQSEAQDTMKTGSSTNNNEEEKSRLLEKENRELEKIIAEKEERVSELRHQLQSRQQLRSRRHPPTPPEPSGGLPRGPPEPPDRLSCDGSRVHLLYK
T1 sequence (O75899 42-941 partner): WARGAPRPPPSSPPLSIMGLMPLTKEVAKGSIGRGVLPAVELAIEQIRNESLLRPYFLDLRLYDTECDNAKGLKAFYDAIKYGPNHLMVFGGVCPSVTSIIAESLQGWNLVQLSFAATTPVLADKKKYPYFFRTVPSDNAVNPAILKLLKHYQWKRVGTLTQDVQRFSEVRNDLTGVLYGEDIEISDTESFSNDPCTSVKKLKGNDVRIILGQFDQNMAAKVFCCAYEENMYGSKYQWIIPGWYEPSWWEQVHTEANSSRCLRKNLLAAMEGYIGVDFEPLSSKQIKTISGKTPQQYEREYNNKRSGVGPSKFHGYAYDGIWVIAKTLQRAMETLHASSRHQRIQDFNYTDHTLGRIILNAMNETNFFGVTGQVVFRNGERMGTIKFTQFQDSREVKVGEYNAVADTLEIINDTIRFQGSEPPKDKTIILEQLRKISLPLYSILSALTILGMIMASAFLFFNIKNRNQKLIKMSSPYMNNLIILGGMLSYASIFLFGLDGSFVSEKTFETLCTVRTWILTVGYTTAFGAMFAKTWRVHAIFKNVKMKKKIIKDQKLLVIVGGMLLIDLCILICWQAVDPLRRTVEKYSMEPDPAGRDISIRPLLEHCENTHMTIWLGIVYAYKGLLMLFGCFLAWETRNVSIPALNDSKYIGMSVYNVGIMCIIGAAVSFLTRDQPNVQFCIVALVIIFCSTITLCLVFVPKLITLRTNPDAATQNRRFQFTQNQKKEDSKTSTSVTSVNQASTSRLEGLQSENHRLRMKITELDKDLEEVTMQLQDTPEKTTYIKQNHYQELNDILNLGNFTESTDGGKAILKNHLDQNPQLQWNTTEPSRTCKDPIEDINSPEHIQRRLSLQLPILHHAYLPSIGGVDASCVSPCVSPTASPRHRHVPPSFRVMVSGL

COCCOCCO[C@@H]1[C@@H](OP(=O)(O)O)[C@H](OCCOCCOC)[C@@H](OP(=O)(O)O)[C@@H](OP(=O)(O)O)[C@H]1OP(=O)(O)O [(OEG2)2-IP4, 4,6-Di-O-(methoxy-diethyleneglycol)-myo-inositol-1,2,3,5-tetrakis(phosphate)]
inhibition at 10 µM (GABAB1A): -7%
inhibition at 10 µM (Muscarinic M1): -6%
inhibition at 10 µM (Muscarinic M3): -6%
inhibition at 10 µM (Muscarinic M2): 4%
inhibition at 10 µM (Cannabinoid CB2): 12%
inhibition at 10 µM (Muscarinic M4): 1%
inhibition at 10 µM (Opiate μ (OP3, MOP)): 11%
animals alive (Figure 5d) (vascular calcification; 1x12.5, Day 0): 12
survival (Figure 5d) (vascular calcification; 1x12.5, Day 0): 100%
animals alive (Figure 5d) (vascular calcification; 1x12.5, Day 4.99): 12
survival (Figure 5d) (vascular calcification; 1x12.5, Day 4.99): 100%
animals alive (Figure 5d) (vascular calcification; 1x12.5, Day 5.01): 11
survival (Figure 5d) (vascular calcification; 1x12.5, Day 5.01): 92%
animals alive (Figure 5d) (vascular calcification; 1x12.5, Day 5.99): 11
survival (Figure 5d) (vascular calcification; 1x12.5, Day 5.99): 92%
animals alive (Figure 5d) (vascular calcification; 1x12.5, Day 6.01): 9
survival (Figure 5d) (vascular calcification; 1x12.5, Day 6.01): 75%
animals alive (Figure 5d) (vascular calcification; 1x12.5, Day 6.99): 9
survival (Figure 5d) (vascular calcification; 1x12.5, Day 6.99): 75%
animals alive (Figure 5d) (vascular calcification; 1x12.5, Day 7.01): 7
survival (Figure 5d) (vascular calcification; 1x12.5, Day 7.01): 58%
animals alive (Figure 5d) (vascular calcification; 1x12.5, Day 7.99): 7
survival (Figure 5d) (vascular calcification; 1x12.5, Day 7.99): 58%
animals alive (Figure 5d) (vascular calcification; 1x12.5, Day 8.01): 7
survival (Figure 5d) (vascular calcification; 1x12.5, Day 8.01): 58%
animals alive (Figure 5d) (vascular calcification; 1x12.5, Day 8.1): 7
survival (Figure 5d) (vascular calcification; 1x12.5, Day 8.1): 58%
calcification in the femoral artery (vascular calcification; 1x12.5 to 2x50 mg/kg/day): dose-dependently prevents calcification in the femoral artery
animals alive (Figure 5d) (vascular calcification; 1x25, Day 0): 12
survival (Figure 5d) (vascular calcification; 1x25, Day 0): 100%
animals alive (Figure 5d) (vascular calcification; 1x25, Day 4.99): 12
survival (Figure 5d) (vascular calcification; 1x25, Day 4.99): 100%
animals alive (Figure 5d) (vascular calcification; 1x25, Day 5.01): 12
survival (Figure 5d) (vascular calcification; 1x25, Day 5.01): 100%
animals alive (Figure 5d) (vascular calcification; 1x25, Day 5.99): 12
survival (Figure 5d) (vascular calcification; 1x25, Day 5.99): 100%
animals alive (Figure 5d) (vascular calcification; 1x25, Day 6.01): 10
survival (Figure 5d) (vascular calcification; 1x25, Day 6.01): 83%
animals alive (Figure 5d) (vascular calcification; 1x25, Day 6.99): 10
survival (Figure 5d) (vascular calcification; 1x25, Day 6.99): 83%
animals alive (Figure 5d) (vascular calcification; 1x25, Day 7.01): 8
survival (Figure 5d) (vascular calcification; 1x25, Day 7.01): 67%
animals alive (Figure 5d) (vascular calcification; 1x25, Day 7.99): 8
survival (Figure 5d) (vascular calcification; 1x25, Day 7.99): 67%
animals alive (Figure 5d) (vascular calcification; 1x25, Day 8.01): 8
survival (Figure 5d) (vascular calcification; 1x25, Day 8.01): 67%
animals alive (Figure 5d) (vascular calcification; 1x25, Day 8.1): 8
survival (Figure 5d) (vascular calcification; 1x25, Day 8.1): 67%
animals alive (Figure 5d) (vascular calcification; 1x50, Day 0): 19
survival (Figure 5d) (vascular calcification; 1x50, Day 0): 100%
animals alive (Figure 5d) (vascular calcification; 1x50, Day 4.99): 19
survival (Figure 5d) (vascular calcification; 1x50, Day 4.99): 100%
animals alive (Figure 5d) (vascular calcification; 1x50, Day 5.01): 19
survival (Figure 5d) (vascular calcification; 1x50, Day 5.01): 100%
animals alive (Figure 5d) (vascular calcification; 1x50, Day 5.99): 19
survival (Figure 5d) (vascular calcification; 1x50, Day 5.99): 100%
animals alive (Figure 5d) (vascular calcification; 1x50, Day 6.01): 19
survival (Figure 5d) (vascular calcification; 1x50, Day 6.01): 100%
animals alive (Figure 5d) (vascular calcification; 1x50, Day 6.99): 19
survival (Figure 5d) (vascular calcification; 1x50, Day 6.99): 100%
animals alive (Figure 5d) (vascular calcification; 1x50, Day 7.01): 17
survival (Figure 5d) (vascular calcification; 1x50, Day 7.01): 89%
animals alive (Figure 5d) (vascular calcification; 1x50, Day 7.99): 17
survival (Figure 5d) (vascular calcification; 1x50, Day 7.99): 89%
animals alive (Figure 5d) (vascular calcification; 1x50, Day 8.01): 15
survival (Figure 5d) (vascular calcification; 1x50, Day 8.01): 79%
animals alive (Figure 5d) (vascular calcification; 1x50, Day 8.1): 15
survival (Figure 5d) (vascular calcification; 1x50, Day 8.1): 79%
survival (vascular calcification; 2 x 25 mg/kg s.c.): 100%
animals alive (Figure 5d) (vascular calcification; 2x25, Day 0): 18
survival (Figure 5d) (vascular calcification; 2x25, Day 0): 100%
animals alive (Figure 5d) (vascular calcification; 2x25, Day 4.99): 18
survival (Figure 5d) (vascular calcification; 2x25, Day 4.99): 100%
animals alive (Figure 5d) (vascular calcification; 2x25, Day 5.01): 18
survival (Figure 5d) (vascular calcification; 2x25, Day 5.01): 100%
animals alive (Figure 5d) (vascular calcification; 2x25, Day 5.99): 18
survival (Figure 5d) (vascular calcification; 2x25, Day 5.99): 100%
animals alive (Figure 5d) (vascular calcification; 2x25, Day 6.01): 18
survival (Figure 5d) (vascular calcification; 2x25, Day 6.01): 100%
animals alive (Figure 5d) (vascular calcification; 2x25, Day 6.99): 18
survival (Figure 5d) (vascular calcification; 2x25, Day 6.99): 100%
animals alive (Figure 5d) (vascular calcification; 2x25, Day 7.01): 18
survival (Figure 5d) (vascular calcification; 2x25, Day 7.01): 100%
animals alive (Figure 5d) (vascular calcification; 2x25, Day 7.99): 18
survival (Figure 5d) (vascular calcification; 2x25, Day 7.99): 100%
animals alive (Figure 5d) (vascular calcification; 2x25, Day 8.01): 18
survival (Figure 5d) (vascular calcification; 2x25, Day 8.01): 100%
animals alive (Figure 5d) (vascular calcification; 2x25, Day 8.1): 18
survival (Figure 5d) (vascular calcification; 2x25, Day 8.1): 100%
animals alive (Figure 5d) (vascular calcification; 2x50, Day 0): 19
survival (Figure 5d) (vascular calcification; 2x50, Day 0): 100%
animals alive (Figure 5d) (vascular calcification; 2x50, Day 4.99): 19
survival (Figure 5d) (vascular calcification; 2x50, Day 4.99): 100%
animals alive (Figure 5d) (vascular calcification; 2x50, Day 5.01): 19
survival (Figure 5d) (vascular calcification; 2x50, Day 5.01): 100%
animals alive (Figure 5d) (vascular calcification; 2x50, Day 5.99): 19
survival (Figure 5d) (vascular calcification; 2x50, Day 5.99): 100%
animals alive (Figure 5d) (vascular calcification; 2x50, Day 6.01): 19
survival (Figure 5d) (vascular calcification; 2x50, Day 6.01): 100%
animals alive (Figure 5d) (vascular calcification; 2x50, Day 6.99): 19
survival (Figure 5d) (vascular calcification; 2x50, Day 6.99): 100%
animals alive (Figure 5d) (vascular calcification; 2x50, Day 7.01): 17
survival (Figure 5d) (vascular calcification; 2x50, Day 7.01): 89%
animals alive (Figure 5d) (vascular calcification; 2x50, Day 7.99): 17
survival (Figure 5d) (vascular calcification; 2x50, Day 7.99): 89%
animals alive (Figure 5d) (vascular calcification; 2x50, Day 8.01): 16
survival (Figure 5d) (vascular calcification; 2x50, Day 8.01): 84%
animals alive (Figure 5d) (vascular calcification; 2x50, Day 8.1): 16
survival (Figure 5d) (vascular calcification; 2x50, Day 8.1): 84%
bulk calcium in carotid artery and femoral artery (vascular calcification; 2 × 25 mg/kg/day): significant reduction in bulk calcium
Mortality rate (vascular calcification; 2 × 25 mg/kg/day s.c. (0/18)): 0%
inhibition at 10 µM [1]: 0%
